Assay results published in patent US8173618B2, “Formulations for reducing neuronal degeneration” (University of Massachusetts, priority 2003, dated 2012).
Entries after “also recorded” stand apart in the source; their conditions may differ.

Experiments:
[1] = system: differentiated SH-SY-5Y cells; assay: Intracellular ROS by DCFD fluorescence in differentiated SH-SY-5Y cells; assay type: cell-based, human; conditions: for ROS: single agent, control cells and cells exposed to Abeta; for increase in ROS resulting from folate deprivation: simultaneously with folate deprivation; for increase in ROS: 20 μM Abeta25-35 two hours
Protocol: Cultured cells were used to test individual agents and formulations. In general, SH-SY-5Y human neuroblastoma cells were cultured in DMEM (Cellgro) containing 10% fetal bovine serum in 5% CO2.
For treatments with Abeta, differentiated cultures were transferred to medium without serum and treated for two hours with 20 μM Abeta25-35 (Sigma Chemical Co., St. Louis, Mo.). […] Louis, Mo.). In experiments calling for treatment of cell cultures with N-acetyl cysteine (NAC; NALC), cultures were treated with 10 mM NAC (Sigma Chemical Co., St. Louis, Mo.) after the culture was grown for two hours in serum-free medium.
(§1) Intracellular reactive oxygen species (ROS) were monitored as described in Ekinci et al., 1999 (J. Biol. Chem., 274:30322-30327). Briefly, cells were incubated for 30 minutes with dichloro-fluorescein diacetate (DCFD; acetoxymethyl ester; Molecular Probes, Inc., Eugene, Oreg.), which is used to detect intracellular peroxide levels. Incubation was followed by rinsing of cultures in serum-free medium and immediate capture of images using UV optics. Images were captured under epifluorescent and phase-contrast illumination using a DAGE CCL-72 cooled CCD camera via a Scion LG-3 frame grabber operated by NIH Image (see the Internet at rsb.info.nih.gov/nih-image). Images were then stored as PICT files on a Macintosh Power PC 7100AV for subsequent analysis. At least 100 cells in randomly-selected fields from duplicate cultures derived from multiple experiments were scored for fluorescent intensity using NIH Image analysis software. Representative background areas devoid of cells were similarly analyzed and subtracted from cell values to yield net densitometric values. All fields for each individual assay were illuminated, captured, and processed under identical settings. Corresponding phase-contrast images were obtained. Cell aggregates were excluded from the assays; only individual cells were quantified. Values were exported to Excel for statistical analyses using Student's t test.
For monitoring of intracellular peroxide concentrations as an index of ROS, cultures received 10 μl/ml DFCD (2′7′-dichlorofluorescein diacetate; Kodak) for 20 minutes. Cultures were then visualized under fluorescein UV optics (perikaryon; Ekinci and Shea, 1999, supra).

[2] = system: differentiated SH-SY-5Y cells; assay: Externalized phosphatidylserine (meracyanine fluorescence) as index of apoptosis in SH-SY-5Y cells; assay type: cell-based, human; conditions: co-treatment with 50 μM ALCAR, 20 μM Abeta
Protocol: (§2) Levels of externalized phosphatidylserine (PS) were used as a measure of apoptosis (Rimon et al., 1997, J. Neurosci. Res., 48:563-570). Briefly, cultures were subjected to treatments then rinsed with PBS and incubated with 10 μl/ml merocyanine (Upstate Biotech, Lake Placid, N.Y.), followed by examination under rhodamine optics (Ekinci et al, 1999, J. Biol. Chem., 274:30322-30327).
The question of whether folate deficiency is associated with apoptosis was investigated. […] Overall detachment, a further sign of cell death, was evident by the seventh day in the serum-deprived cultures. The detachment phenomenon precluded longer experiments.
(§3) The effect of ALCAR on differentiated SH-SY-5Y cells treated with Abeta was examined. Cells were cultured in 20 μM Abeta in the presence and absence of ALCAR. Some cultures were pretreated with 50 μM ALCAR for 30 minutes. In these experiments, the ALCAR-containing medium was replaced with medium containing Abeta and no ALCAR then incubated for two hours before being assayed. Cultures were assayed for ROS, apoptosis, and ATP.

[3] = system: differentiated SH-SY-5Y cells; assay: ATP levels in Abeta-treated SH-SY-5Y cells; assay type: cell-based, human
Protocol: FIG. 11 is a bar graph showing the results of experiments examining apoptosis in which differentiated SH-SY-5Y cells cultured in the presence or absence of Abeta, with or without ALCAR for two hours, and assayed for ATP using spectrophotometric methods known in the art.
as §3

[4] = system: SH-SY-5Y cells; assay: HPLC of homocysteine in SH-SY-5Y cell lysates and medium; assay type: cell-based, human; conditions: 25 μM DZA during folate deprivation
Protocol: (§4) Glutathione levels were quantified in homogenates of SH-SY-5Y cells. Cultures were rinsed twice with Tris-buffered saline (TBS), scraped from the plate in a small volume of TBS and homogenized on ice. Medium was also utilized for analysis of HCY along with cellular lysates, since HCY is normally exported from cells. Homogenates (100 μl) were reduced by mixing with 50 μl of 100 μM N-acetylcysteine or with 30 μl of 30 μM cystamine (as an internal standard) and 10 μl of tri-carboxyethylphosphine (100 mg/ml in 0.05 M HCl). Samples were vortexed, incubated at room temperature for 30 minutes, then centrifuged at 10,000×g for 10 minutes. 80 μl of the resulting supernatant were combined with 160 μl of 2 M boric acid/4 mM EDTA (pH 10.5), followed by 80 μl of 1.0 mg/ml SBDF [7-fluorobenzo-2-oxa-1,3-diazole-4-sulfonate] in boric acid/EDTA buffer). Samples were mixed, incubated for 60 minutes at 60° C., equilibrated to reach temperature, and 50 μl of the sample was then injected into a Hewlett Packard model 1090 HPLC, which is used with a 1046A fluorescence detector and a Hewlett Packard 4.6×60 mm high-speed analytical column packed with 3 μM ODs (C18) Hypersil silica. The mobile phase consisted of methanol/0.2 M acetate buffer pH 4.0 (2/98 by volume). Glutathione concentrations were then determined by comparison of peak area ratios of glutathione to the internal standard N-acetylcysteine in the sample compared to peak areas obtained for a glutathione standard curve. Samples were derived from 3-4 normal and 3-4 ApoE−/− mice for each dietary condition, from ≧2 independent experiments (total n≧6 for each diet for both experiments).
Medium was then decanted, cells were scraped from the plate and homogenized, and medium and cellular lysates, along with an aliquot of fresh medium that had not been in contact with cells, were subjected to HPLC analyses.

[5] = system: SH-SY-5Y cells; assay: Homocysteine-induced apoptosis, meracyanine staining of externalized PS; assay type: cell-based, human
Protocol: FIG. 20 is a bar graph that depicts the results of experiments in which […] were treated with 250 μM homocysteine with or without 100 μM SAM, after which cultures were monitored for externalized PS via meracyanine staining as an indication of apoptosis. Values represent the mean (±standard error of the mean) in arbitrary densitometric units derived from densitometric analyses of 10-50 neurons from two cultures under each condition from two separate independent experiments.
as §2
Homocysteine induces apoptosis in cultured cells. To investigate the effect of SAM on HC-induced apoptosis, 100 μM SAM and homocysteine were added to cultured SH-SY-5Y cells and apoptosis was monitored by meracyanine staining to detect the externalization of PS.

[6] = system: SH-SY-5Y cells; assay: HPLC analysis of glutathione and thiols in SH-SY-5Y cells; assay type: cell-based, human; conditions: NAC treatment in the absence of folate
Protocol: as §4
NAC directly scavenges ROS and also provide a source of intracellular cysteine for synthesis of glutathione during conditions of oxidative stress. […] Differentiated SH-SY-5Y cells with and without NAC treatment were subjected to HPLC along with 50 μM each of multiple thiol standards (“Standards”) as indicated in FIGS. 18A to 18C.

[7] = reported; cited from earlier work
[8] = system: normal and ApoE−/− mice; assay: TBAR analysis of brain oxidative damage in mice on dietary regimens; assay type: in vivo; conditions: deficiency in vitamin E alone
Description: Damage resulting from the generation of intracellular reactive oxygen species can also be quantified using a TBAR assay (Ohkawa et al., Anal. Biochem., 95:351-358, 1979). This method is used to determine cellular lipid hydroperoxides in cultured cells by thiobarbituric acid reaction. Lipid hydroperoxides break down to malondialdehyde and other aldehydes. These react with thiobarbituric acid in a mildly acidic environment, which results in formation of a chromophore. The resulting chromophore is measured by light absorption or fluorescence techniques.
After one month, total brain tissue was harvested and subjected to TBAR analyses as described in Wittaker et al. (1996, supra).
Additional mice received the deficient diet supplemented with DZA (0.4 g/kg total diet weight), SAM (80 mg/kg diet weight) and NAC (1 g/kg diet weight). Total brain tissue was harvested and analyzed for TBARs.

[9] = system: cortical neurons; assay: Intracellular ROS by DCFD fluorescence in cortical neurons; assay type: cell-based, mice; conditions: folate-deficient medium two hours, 0.15 mg/ml vitamin E as alpha-tocopherol
Protocol: as §1, with “Ekinci” left out, “test. […]” for “test.”

[10] = no folate + 25 μM DZA, two hours

CC(=O)O[C@H](CC(=O)[O-])C[N+](C)(C)C [ALCAR, acetyl-L-carnitine]
effect of Abeta on ROS generation ([1]; co-treatment with 50 μM ALCAR, 20 μM Abeta): reduced the effect of Abeta on ROS generation
Abeta neurotoxicity (ROS, apoptosis) ([1]; pretreatment with 50 μM ALCAR for 30 minutes, followed by its removal): effective at preventing Abeta neurotoxicity
ROS ([1]; two hours): reduced ROS
effect of Abeta on apoptosis [2]: reduced
Abeta-induced reduction in ATP levels ([3]; co-treatment and prior treatment with 50 μM ALCAR): prevented this reduction in ATP levels

Nc1nccc2c1ncn2[C@@H]1O[C@H](CO)[C@@H](O)[C@H]1O [DZA, 3-deazaadenosine]
attenuation of the increase in ROS from folate deprivation ([1]; 25 μM DZA during folate deprivation): approximately 50%
attenuation of the increase in ROS from folate deprivation ([1]; 25 μM DZA simultaneously with folate deprivation): attenuated the increase in ROS by slightly more than half
ROS % increase vs. control [1, 10]: 16%
ROS Mean ± SEM [1, 10]: 8.8 ± 0.3
HCY formation and export [4]: prevented HCY formation and export to a level below that observed in cultures receiving folate

N[C@@H](CCS)C(=O)O [Homocysteine, homocysteine]
externalization of PS ([5]; homocysteine, 2 and 24 hours): progressively induced externalization of PS

CC(=O)N[C@@H](CS)C(=O)O [NAC, N-acetyl cysteine]
intracellular cysteine (HPLC) [6]: marked increase
intracellular glutathione (HPLC) [6]: marked increase
increase in ROS resulting from folate deprivation ([1]; 1 mM NAC, two hours): prevented the increase in ROS
increase in ROS resulting from folate deprivation ([1]; 10 mM NAC, two hours): prevented the increase in ROS
ROS induced by Abeta ([1]; NAC (10 mM) applied 15 minutes after Abeta): quenched ROS
entry into the CNS [7]: reported to enter or have effects in the CNS

C[S+](CC[C@H](N)C(=O)O)C[C@H]1O[C@@H](n2cnc3c(N)ncnc32)[C@H](O)[C@@H]1O (stereo partly shown) [SAM, S-adenosyl methionine]
increase in ROS generated by folate deprivation ([1]; 100 μM SAM, two hours): attenuation of the increase in ROS; also recorded: reduced ROS levels to a greater extent than did incubation of cells in the presence of folate
entry into the CNS [7]: reported to enter or have effects in the CNS
homocysteine-induced PS externalization ([5]; 100 μM SAM, 2 hours): prevented PS externalization
reduction of homocysteine-induced PS externalization ([5]; 100 μM SAM, 24 hours): approximately 50%

Cc1c(C)c2c(c(C)c1O)CC[C@@](C)(CCC[C@H](C)CCC[C@H](C)CCCC(C)C)O2 [vitamin E, alpha-tocopherol]
ROS in brain (TBAR) ([8]; ApoE−/− knockout mice): did increase ROS
ROS in brain (TBAR) ([8]; iron-fed normal mice): did not increase ROS
ROS induction by Abeta ([1]; additional experiments, vitamin E): prevented
ROS ([1]; two hours): reduced ROS
ROS induced by Abeta ([1]; vitamin E (0.15 ng/mL) applied 15 minutes after Abeta): efficacy of vitamin E was markedly reduced; also recorded: but not vitamin E, quenched ROS
ROS induced by Abeta ([1]; vitamin E (0.15 ng/mL) provided simultaneously with Abeta, two hours): approximately identical to that of control cells
ROS generation during folate deprivation [9]: not prevented

Abeta: beta-amyloid fragment of the amyloid precursor protein; Abeta25-35 (Sigma) used at 20 μM (GSNKGAIIGLM; Amyloid-beta protein 42; UniProt P05067 696-706, looked up, fragment)
increase in ROS ([1]; folate-deprived cells): 144±10%
increase in ROS ([1]; in the presence of folate): 34±4%
cellular ATP ([3]; 20 μM Abeta): reduced cellular ATP
